Measurements as given in patent US12226386B2, “Compositions and methods for treating biofilms” (The Regents of the University of California, priority 2018, dated 2025).

Experiments:
[1] = tested on: Candida and Staphylococcus biofilms; experiment: biofilm assays (sustained inhibition and disruption), bacterial and fungal; format: cell-based, Candida albicans; Staphylococcus aureus; conditions: in both assays (sustained inhibition and disruption)
Protocol: (§1) In vitro biofilm formation was tested using two assays, sustained inhibition and disruption. Both assays assess biofilm formed on polystyrene plates. The first, tests the effects of amino acid solution on a developing biofilm, while the latter tests the effects of the solution on a pre-formed mature biofilm, both compared to media without supplemented amino acids.
(§2) Other amino acids in the blood of animals could combat bacterial and fungal biofilm and therefore may be useful in treating these bacterial and fungal infections that would lie on the external surfaces of infected animals such as humans and could also be used to combat these pathogens on instruments and surfaces that need to be treated. Two types of biofilm assays were performed: a sustained inhibition assay and a disruption assay. The sustained inhibition assay assessed the compound's ability to prevent biofilm development throughout all stages of biofilm formation, while the disruption assay assessed the compound's ability to break up an existing mature biofilm.
(§3) For fungal biofilm assays, all solutions were prepared in RPMI 1640 medium. All bacterial biofilm solutions were prepared in Tryptic Soy Broth (TSB), supplemented with 1% glucose (henceforth referred to as TSB-G). All subsequent procedures were performed in a manner that maintained sterility. A solution of each amino acid to be tested was prepared in weight to volume concentrations ranging from 0.1-5.0%. Amino acids were also tested in combinations. Compound solutions were homogenized with gentle agitation in the dark (4° C., 24 hours) before use.
(§4) Fungal strains were streaked on Yeast Peptone Dextrose (YPD) agar plates and incubated at 30° C. for 48 hours. A single colony from each strain to be tested was inoculated into YPD broth and grown for 12 hours, at 30° C., shaking at 225 rpm. For the fungal biofilm inhibition assay, 1 μl of saturated overnight cell culture was added to either 80 μL of RPMI-1640 or RPMI-1640 supplemented with the amino acid compound solution to be tested, in a 384-well plate. The cells were allowed to adhere to the plate for 90 minutes at 37° C. shaking at 350 rpm. Loosely bound cells were washed once with phosphate buffered saline (PBS) and 80 μl of RPMI-1640, or RPMI-1640 supplemented with the amino acid compound solution was added to the plate. The plate was further incubated for 24 hours at 37° C. shaking at 350 rpm. Media was carefully aspirated and the biofilm was measured by optical density at 600 nm. Twelve replicates were performed for each tested condition and the reported values are normalized to the control (RPMI-1640 media only). For the fungal biofilm disruption assays, 80 μL of RPMI-1640 was added to the plate, along with 1 μL of overnight cell culture. The cells were allowed to adhere to the plate for 90 minutes at 37° C. shaking at 350 rpm. Loosely bound cells were washed once with PBS and 80 μL of RPMI-1640 was added to the plate. The plate was further incubated for 24 hours at 37° C. shaking at 350 rpm. Media was carefully aspirated from the mature biofilm and 80 μL of RPMI-1640, or RPMI-1640 supplemented with the amino acid compound solution to be tested, was gently added to the plate. The plate was further incubated for 24 hours at 37° C. shaking at 350 rpm. Media was carefully aspirated and the biofilm was measured by optical density at 600 nm. Twelve replicates were performed for each tested condition and the reported values are normalized to the control (RPMI-1640 media only).
Bacterial strains were streaked on Blood Agar plates (5% sheep blood in Tryptic Soy Agar) and incubated at 37° C. for 24 hours. A single colony from each strain to be tested was inoculated in a TSB broth and grown for 12 hours, at 37° C. shaking at 225 rpm. For the bacterial biofilm inhibition assays, 1 μL of saturated overnight cell culture was added to either 80 μL of TSB-G, or TSB-G supplemented with the amino acid compound solution to be tested, in a 384-well plate. […]

[2] = tested on: fungal biofilms (C. albicans); experiment: biofilm assays (sustained inhibition and/or disruption), fungal; format: cell-based, Candida albicans; conditions: in at least one of the two biofilm assays; for anti-biofilm properties against fungal biofilms: administered individually
Protocol: Other amino acids in the blood of animals could combat bacterial and fungal biofilm and therefore may be useful in treating these bacterial and fungal infections that would lie on the external surfaces of infected animals such as humans and could also be used to combat these pathogens on instruments and surfaces that need to be treated. Two types of biofilm assays were performed: a sustained inhibition assay and a disruption assay. The sustained inhibition assay assessed the compound's ability to prevent biofilm development throughout all stages of biofilm formation, while the disruption assay assessed the compound's ability to break up an existing mature biofilm. For fungal biofilm assays, all solutions were prepared in RPMI 1640 medium. All bacterial biofilm solutions were prepared in Tryptic Soy Broth (TSB), supplemented with 1% glucose (henceforth referred to as TSB-G). All subsequent procedures were performed in a manner that maintained sterility. […] Amino acids were also tested in combinations. Compound solutions were homogenized with gentle agitation in the dark (4° C., 24 hours) before use. Fungal strains were streaked on Yeast Peptone Dextrose (YPD) agar plates and incubated at 30° C. for 48 hours. A single colony from each strain to be tested was inoculated into YPD broth and grown for 12 hours, at 30° C., shaking at 225 rpm. For the fungal biofilm inhibition assay, 1 μl of saturated overnight cell culture was added to either 80 μL of RPMI-1640 or RPMI-1640 supplemented with the amino acid compound solution to be tested, in a 384-well plate. The cells were allowed to adhere to the plate for 90 minutes at 37° C. shaking at 350 rpm. Loosely bound cells were washed once with phosphate buffered saline (PBS) and 80 μl of RPMI-1640, or RPMI-1640 supplemented with the amino acid compound solution was added to the plate. The plate was further incubated for 24 hours at 37° C. shaking at 350 rpm. Media was carefully aspirated and the biofilm was measured by optical density at 600 nm. Twelve replicates were performed for each tested condition and the reported values are normalized to the control (RPMI-1640 media only). For the fungal biofilm disruption assays, 80 μL of RPMI-1640 was added to the plate, along with 1 μL of overnight cell culture. The cells were allowed to adhere to the plate for 90 minutes at 37° C. shaking at 350 rpm. Loosely bound cells were washed once with PBS and 80 μL of RPMI-1640 was added to the plate. The plate was further incubated for 24 hours at 37° C. shaking at 350 rpm. Media was carefully aspirated from the mature biofilm and 80 μL of RPMI-1640, or RPMI-1640 supplemented with the amino acid compound solution to be tested, was gently added to the plate. The plate was further incubated for 24 hours at 37° C. shaking at 350 rpm. Media was carefully aspirated and the biofilm was measured by optical density at 600 nm. Twelve replicates were performed for each tested condition and the reported values are normalized to the control (RPMI-1640 media only).

[3] = tested on: bacterial biofilms (MRSA); experiment: biofilm assays (sustained inhibition and/or disruption), bacterial; format: cell-based, Staphylococcus aureus; conditions: in at least one of the two biofilm assays
Protocol: as §2, §3
(§5) Bacterial strains were streaked on Blood Agar plates (5% sheep blood in Tryptic Soy Agar) and incubated at 37° C. for 24 hours. A single colony from each strain to be tested was inoculated in a TSB broth and grown for 12 hours, at 37° C. shaking at 225 rpm. For the bacterial biofilm inhibition assays, 1 μL of saturated overnight cell culture was added to either 80 μL of TSB-G, or TSB-G supplemented with the amino acid compound solution to be tested, in a 384-well plate. The cells were allowed to adhere to the plate for 60 minutes at 37° C. without shaking. The media was carefully aspirated and 80 μL of TSB-G, or TSB-G supplemented with the amino acid compound solution was added to the plate. The plate was further incubated for 24 hours at 37° C. without shaking. Media was carefully aspirated and the biofilm was measured by optical density at 600 nm. Eight or twelve replicates were performed for each tested condition and the reported values are normalized to the control (TSB-G media only). For the bacterial biofilm disruption assays, 80 μL of TSB-G was added to the plate, along with 1 μL of overnight cell culture. The cells were allowed to adhere to the plate for 60 minutes at 37° C. with no shaking. The media was carefully aspirated and 80 μL of TSB-G was added to the plate. The plate was further incubated for 24 hours at 37° C. with no shaking. Media was carefully aspirated from the mature biofilm and 80 μL of TSB-G, or TSB-G supplemented with the amino acid to be tested, was gently added to the plate. The plate was further incubated for 24 hours at 37° C. without shaking. Media was aspirated and the biofilm was measured by optical density at 600 nm. Twelve replicates were performed for each tested condition and the reported values are normalized to the control (TSB-G media only).

[4] = tested on: C. albicans biofilms; experiment: in vitro biofilm disruption assay, fungal; format: cell-based, Candida albicans; conditions: 1% amino acid, p<0.001
Protocol: (§6) Two types of biofilm assays were performed: a sustained inhibition assay and a disruption assay.
as §3
as §4, with “The cells were allowed to adhere to the plate for 90 minutes at 37° C. shaking at 350 rpm. Loosely bound cells were washed once with phosphate buffered saline (PBS) and 80 μl of RPMI-1640, or RPMI-1640 supplemented with the amino acid compound solution was added to the plate. The plate was further incubated for 24 hours at 37° C. shaking at 350 rpm.” left out, “The cells were allowed to adhere to the plate for 90 minutes at 37° C. shaking at 350 rpm.” left out, “The plate was further incubated for 24 hours at 37° C. shaking at 350 rpm.” left out
The cells were allowed to adhere to the plate for 90 minutes at 37° C. with shaking (350 rpm). […] The plate was further incubated for 24 hours at 37° C. with shaking (350 rpm). […] The plate was further incubated for 24 hours at 37° C. with shaking (350 rpm). Media was carefully aspirated and the biofilm was measured by optical density at 600 nm.

[5] = tested on: S. aureus (MRSA) biofilms; experiment: in vitro biofilm disruption assay, bacterial; format: cell-based; conditions: Staphylococcus aureus, 24 h, disruption, S. aureus, 1% amino acid; for inhibition at 1 %: p<0.001, read-out: Reduce B Biofilm
Protocol: as §1, §2, §3, §5
For disruption assay, 80 μl of TSB-G was added to the plate, along with 1 μl of overnight cell culture. The cells were allowed to adhere to the plate for 60 minutes at 37° C. with no shaking. The media was carefully aspirated and 80 μl of TSB-G was added to the plate. The plate was further incubated for 24 hours at 37° C. with no shaking. Media was carefully aspirated from the mature biofilm and 80 μl of TSB-G, or TSB-G supplemented with the amino acid to be tested, was added drop wise to the plate. The plate was further incubated for 24 hours at 37° C. with no shaking. […]

[6] = tested on: C. albicans biofilms; experiment: in vitro sustained inhibition biofilm assay, fungal; format: cell-based, Candida albicans; conditions: 1% amino acid, p<0.001
Protocol: as §6, §3
as §4, with “The cells were allowed to adhere to the plate for 90 minutes at 37° C. shaking at 350 rpm. Loosely bound cells were washed once with phosphate buffered saline (PBS) and 80 μl of RPMI-1640, or RPMI-1640 supplemented with the amino acid compound solution was added to the plate. The plate was further incubated for 24 hours at 37° C. shaking at 350 rpm.” left out, “The cells were allowed to adhere to the plate for 90 minutes at 37° C. shaking at 350 rpm.” left out, “The plate was further incubated for 24 hours at 37° C. shaking at 350 rpm.” left out
The plate was further incubated for 24 hours at 37° C. with shaking (350 rpm). Media was carefully aspirated and the biofilm was measured by optical density at 600 nm.

## Cn1cnc(C[C@H](N)C(=O)O)c1 [1-Methylhistidine, 1-methyl-L-histidine]
[1]
  effect on bacterial or fungal biofilms: neutral

## N[C@@H](Cc1c[nH]c2ccccc12)C(=O)O [Tryptophan, L-tryptophan]
[1]
  effect on bacterial or fungal biofilms: neutral

## CCC(N)C(=O)O (stereo not drawn) [2 Aminobutyric Acid, 2-aminobutyric acid]
[1]
  effect on bacterial or fungal biofilms: neutral

## O=C(O)[C@@H]1CCCN1 [Proline, L-proline]
[2]
  anti-biofilm properties against fungal biofilms: reduction by less than two-fold
[3]
  effect on bacterial biofilm growth: support (improve) bacterial biofilm growth
[4]
  Reduce F Biofilm: ● (a single dot [i.e. ●] signifies minor effect (from about 10 to about 30% change))
[5]; p<0.001, read-out: Promote B Biofilm
  activation at 1 %: 10 to 30%

## NC(=O)CC[C@H](N)C(=O)O [Glutamine, L-glutamine]
[1]
  effect on bacterial or fungal biofilms: neutral

## Cn1cncc1C[C@H](N)C(=O)O [3-Methylhistidine, 3-methyl-L-histidine]
[2]
  effect on fungal biofilm growth: support (improve) fungal biofilm growth
[6]
  Promote F Biofilm: ● (a single dot [i.e. ●] signifies minor effect (from about 10 to about 30% change))
[5]
  inhibition at 1 %: 10 to 30%

## CC(C)[C@H](N)C(=O)O [Valine, L-valine]
[2]
  effect on fungal biofilm growth: support (improve) fungal biofilm growth
[6]
  Promote F Biofilm: ● (a single dot [i.e. ●] signifies minor effect (from about 10 to about 30% change))
[5]
  inhibition at 1 %: 10 to 30%

## N[C@@H](Cc1c[nH]cn1)C(=O)O [Histidine, L-histidine]
[1]
  effect on bacterial or fungal biofilms: neutral

## N[C@@H](COP(=O)(O)O)C(=O)O [Phosphoserine, O-phospho-L-serine]
[2]
  anti-biofilm properties against fungal biofilms: reduction by less than two-fold
[4]
  Reduce F Biofilm: ● (a single dot [i.e. ●] signifies minor effect (from about 10 to about 30% change))
[5]
  inhibition at 1 %: 10 to 30%

## NCCO [Ethanolamine, ethanolamine]
[2]
  anti-biofilm properties against fungal biofilms: reduction by less than two-fold
[6]
  Reduce F Biofilm: ● (a single dot [i.e. ●] signifies minor effect (from about 10 to about 30% change))

## N[C@@H](Cc1ccc(O)cc1)C(=O)O [Tyrosine, L-tyrosine]
[1]
  effect on bacterial or fungal biofilms: neutral
